Results taken from ChEMBL document CHEMBL2331477, “Effect of helical conformation and side chain structure on γ-secretase inhibition by β-peptide foldamers: insight into substrate recognition” (J Med Chem, 2013).
The source made the active and inactive calls. The rule behind the calls is not given here.

What was measured:
[1] = biological target: T1, Gamma-secretase (Homo sapiens) (UniProt Q96BI3+Q9NZ42+Q8WW43+P49768+Q92542+P49810); assay: Inhibition of gamma-secretase (unknown origin) expressed in N2a NL/N cells coexpressing betaAPPNL and NotchdeltaE assessed as Abeta40 secretion at 100 nM by ELISA; assay type: cell-based
[2] = biological target: T1, Gamma-secretase (Homo sapiens); assay: Inhibition of gamma-secretase (unknown origin) expressed in N2a NL/N cells coexpressing betaAPPNL and NotchdeltaE assessed as Abeta42 secretion at 100 nM by ELISA; assay type: cell-based

| SMILES | inhibition [1] | inhibition [2] |
| --- | --- | --- |
| CC(=O)N[C@H]1CCC[C@@H]1C(=O)N[C@H]1CCC[C@@H]1C(=O)N[C@H](CC(=O)N[C@H]1CCC[C@@H]1C(=O)N[C@H]1CCC[C@@H]1C(=O)N[C@H]1CCC[C@@H]1C(=O)N[C@H]1CCC[C@@H]1C(=O)N[C@H]1CCC[C@@H]1C(=O)N[C@H]1CCC[C@@H]1C(=O)N[C@H]1CCC[C@@H]1C(=O)N[C@H]1CCC[C@@H]1C(=O)N[C@H]1CCC[C@@H]1C(N)=O)CC(C)C | Active | Active |
| CC(=O)N[C@H]1CCC[C@@H]1C(=O)N[C@H]1CCC[C@@H]1C(=O)N[C@H]1CCC[C@@H]1C(=O)N[C@H]1CCC[C@@H]1C(=O)N[C@H]1CCC[C@@H]1C(=O)N[C@H]1CCC[C@@H]1C(=O)N[C@H]1CCC[C@@H]1C(=O)N[C@H]1CCC[C@@H]1C(=O)N[C@@H](CC(N)=O)CC(=O)N[C@H]1CCC[C@@H]1C(=O)N[C@H]1CCC[C@@H]1C(=O)N[C@H]1CCC[C@@H]1C(N)=O | inactive | inactive |
| CC(=O)N[C@H]1CCC[C@@H]1C(=O)N[C@H]1CCC[C@@H]1C(=O)N[C@@H](CCC(=O)O)CC(=O)N[C@H]1CCC[C@@H]1C(=O)N[C@H]1CCC[C@@H]1C(=O)N[C@H]1CCC[C@@H]1C(=O)N[C@H]1CCC[C@@H]1C(=O)N[C@H]1CCC[C@@H]1C(=O)N[C@H]1CCC[C@@H]1C(=O)N[C@H]1CCC[C@@H]1C(=O)N[C@H]1CCC[C@@H]1C(=O)N[C@H]1CCC[C@@H]1C(N)=O | Active | Active |
| CC(=O)N[C@H]1CCC[C@@H]1C(=O)N[C@H]1CCC[C@@H]1C(=O)N[C@H]1CCC[C@@H]1C(=O)N[C@H]1CCC[C@@H]1C(=O)N[C@H]1CCC[C@@H]1C(=O)N[C@H]1CCC[C@@H]1C(=O)N[C@H]1CCC[C@@H]1C(=O)N[C@H]1CCC[C@@H]1C(=O)N[C@H](CC(=O)N[C@H]1CCC[C@@H]1C(=O)N[C@H]1CCC[C@@H]1C(=O)N[C@H]1CCC[C@@H]1C(N)=O)Cc1ccc(O)cc1 | inactive | inactive |
| CC(=O)N[C@H]1CCC[C@@H]1C(=O)N[C@H]1CCC[C@@H]1C(=O)N[C@@H](CCC(N)=O)CC(=O)N[C@H]1CCC[C@@H]1C(=O)N[C@H]1CCC[C@@H]1C(=O)N[C@H]1CCC[C@@H]1C(=O)N[C@H]1CCC[C@@H]1C(=O)N[C@H]1CCC[C@@H]1C(=O)N[C@H]1CCC[C@@H]1C(=O)N[C@H]1CCC[C@@H]1C(=O)N[C@H]1CCC[C@@H]1C(=O)N[C@H]1CCC[C@@H]1C(N)=O | Active | Active |
| CC(=O)N[C@H]1CCC[C@@H]1C(=O)N[C@H]1CCC[C@@H]1C(=O)N[C@H]1CCC[C@@H]1C(=O)N[C@H]1CCC[C@@H]1C(=O)N[C@H]1CCC[C@@H]1C(=O)N[C@H]1CCC[C@@H]1C(=O)N[C@H]1CCC[C@@H]1C(=O)N[C@H]1CCC[C@@H]1C(=O)N[C@H](CC(=O)N[C@H]1CCC[C@@H]1C(=O)N[C@H]1CCC[C@@H]1C(=O)N[C@H]1CCC[C@@H]1C(N)=O)CC(C)C | inactive | inactive |
| CC(=O)N[C@H]1CCC[C@@H]1C(=O)N[C@H]1CCC[C@@H]1C(=O)N[C@H]1CCC[C@@H]1C(=O)N[C@H]1CCC[C@@H]1C(=O)N[C@H]1CCC[C@@H]1C(=O)N[C@H]1CCC[C@@H]1C(=O)N[C@H]1CCC[C@@H]1C(=O)N[C@H]1CCC[C@@H]1C(=O)N[C@@H](CC(=O)N[C@H]1CCC[C@@H]1C(=O)N[C@H]1CCC[C@@H]1C(=O)N[C@H]1CCC[C@@H]1C(N)=O)[C@@H](C)O | inactive | inactive |
| CC(=O)N[C@H]1CCC[C@@H]1C(=O)N[C@H]1CCC[C@@H]1C(=O)N[C@H]1CCC[C@@H]1C(=O)N[C@H]1CCC[C@@H]1C(=O)N[C@H]1CCC[C@@H]1C(=O)N[C@H](CC(=O)N[C@H]1CCC[C@@H]1C(=O)N[C@H]1CCC[C@@H]1C(=O)N[C@H]1CCC[C@@H]1C(=O)N[C@H]1CCC[C@@H]1C(=O)N[C@H]1CCC[C@@H]1C(=O)N[C@H]1CCC[C@@H]1C(N)=O)Cc1ccc(O)cc1 | inactive | inactive |
| CC(=O)N[C@H]1CCC[C@@H]1C(=O)N[C@H]1CCC[C@@H]1C(=O)N[C@H]1CCC[C@@H]1C(=O)N[C@H]1CCC[C@@H]1C(=O)N[C@H]1CCC[C@@H]1C(=O)N[C@H]1CCC[C@@H]1C(=O)N[C@H]1CCC[C@@H]1C(=O)N[C@H]1CCC[C@@H]1C(=O)N[C@@H](CCC(N)=O)CC(=O)N[C@H]1CCC[C@@H]1C(=O)N[C@H]1CCC[C@@H]1C(=O)N[C@H]1CCC[C@@H]1C(N)=O | inactive | inactive |
| CC(=O)N[C@H]1CCC[C@@H]1C(=O)N[C@H]1CCC[C@@H]1C(=O)N[C@@H](CC(=O)N[C@H]1CCC[C@@H]1C(=O)N[C@H]1CCC[C@@H]1C(=O)N[C@H]1CCC[C@@H]1C(=O)N[C@H]1CCC[C@@H]1C(=O)N[C@H]1CCC[C@@H]1C(=O)N[C@H]1CCC[C@@H]1C(=O)N[C@H]1CCC[C@@H]1C(=O)N[C@H]1CCC[C@@H]1C(=O)N[C@H]1CCC[C@@H]1C(N)=O)[C@@H](C)O | inactive | inactive |
| CC(=O)N[C@H]1CCC[C@@H]1C(=O)N[C@H]1CCC[C@@H]1C(=O)N[C@H]1CCC[C@@H]1C(=O)N[C@H]1CCC[C@@H]1C(=O)N[C@H]1CCC[C@@H]1C(=O)N[C@H](CO)CC(=O)N[C@H]1CCC[C@@H]1C(=O)N[C@H]1CCC[C@@H]1C(=O)N[C@H]1CCC[C@@H]1C(=O)N[C@H]1CCC[C@@H]1C(=O)N[C@H]1CCC[C@@H]1C(=O)N[C@H]1CCC[C@@H]1C(N)=O | inactive | inactive |
| CC(=O)N[C@H]1CCC[C@@H]1C(=O)N[C@H]1CCC[C@@H]1C(=O)N[C@H]1CCC[C@@H]1C(=O)N[C@H]1CCC[C@@H]1C(=O)N[C@H]1CCC[C@@H]1C(=O)N[C@H]1CCC[C@@H]1C(=O)N[C@H]1CCC[C@@H]1C(=O)N[C@H]1CCC[C@@H]1C(=O)NC(CO)CC(=O)N[C@H]1CCC[C@@H]1C(=O)N[C@H]1CCC[C@@H]1C(=O)N[C@H]1CCC[C@@H]1C(N)=O (single isomer, unassigned) | inactive | inactive |
| CC(=O)N[C@H]1CCC[C@@H]1C(=O)N[C@H]1CCC[C@@H]1C(=O)N[C@H](CC(=O)N[C@H]1CCC[C@@H]1C(=O)N[C@H]1CCC[C@@H]1C(=O)N[C@H]1CCC[C@@H]1C(=O)N[C@H]1CCC[C@@H]1C(=O)N[C@H]1CCC[C@@H]1C(=O)N[C@H]1CCC[C@@H]1C(=O)N[C@H]1CCC[C@@H]1C(=O)N[C@H]1CCC[C@@H]1C(=O)N[C@H]1CCC[C@@H]1C(N)=O)Cc1ccc(O)cc1 | inactive | inactive |
| CC(=O)N[C@H]1CCC[C@@H]1C(=O)N[C@H]1CCC[C@@H]1C(=O)N[C@H]1CCC[C@@H]1C(=O)N[C@H]1CCC[C@@H]1C(=O)N[C@H]1CCC[C@@H]1C(=O)N[C@@H](CCC(=O)O)CC(=O)N[C@H]1CCC[C@@H]1C(=O)N[C@H]1CCC[C@@H]1C(=O)N[C@H]1CCC[C@@H]1C(=O)N[C@H]1CCC[C@@H]1C(=O)N[C@H]1CCC[C@@H]1C(=O)N[C@H]1CCC[C@@H]1C(N)=O | inactive | inactive |
| CC(=O)N[C@H]1CCC[C@@H]1C(=O)N[C@H]1CCC[C@@H]1C(=O)N[C@H]1CCC[C@@H]1C(=O)N[C@H]1CCC[C@@H]1C(=O)N[C@H]1CCC[C@@H]1C(=O)N[C@@H](CC(=O)N[C@H]1CCC[C@@H]1C(=O)N[C@H]1CCC[C@@H]1C(=O)N[C@H]1CCC[C@@H]1C(=O)N[C@H]1CCC[C@@H]1C(=O)N[C@H]1CCC[C@@H]1C(=O)N[C@H]1CCC[C@@H]1C(N)=O)[C@@H](C)O | inactive | inactive |
| CC(=O)N[C@H]1CCC[C@@H]1C(=O)N[C@H]1CCC[C@@H]1C(=O)N[C@H]1CCC[C@@H]1C(=O)N[C@H]1CCC[C@@H]1C(=O)N[C@H]1CCC[C@@H]1C(=O)N[C@@H](CCCCN)CC(=O)N[C@H]1CCC[C@@H]1C(=O)N[C@H]1CCC[C@@H]1C(=O)N[C@H]1CCC[C@@H]1C(=O)N[C@H]1CCC[C@@H]1C(=O)N[C@H]1CCC[C@@H]1C(=O)N[C@H]1CCC[C@@H]1C(N)=O | inactive | inactive |
| CC(=O)N[C@H]1CCC[C@@H]1C(=O)N[C@H]1CCC[C@@H]1C(=O)N[C@@H](C)CC(=O)N[C@H]1CCC[C@@H]1C(=O)N[C@H]1CCC[C@@H]1C(=O)N[C@H]1CCC[C@@H]1C(=O)N[C@H]1CCC[C@@H]1C(=O)N[C@H]1CCC[C@@H]1C(=O)N[C@H]1CCC[C@@H]1C(=O)N[C@H]1CCC[C@@H]1C(=O)N[C@H]1CCC[C@@H]1C(=O)N[C@H]1CCC[C@@H]1C(N)=O | Active | Active |
| CC(=O)N[C@H]1CCC[C@@H]1C(=O)N[C@H]1CCC[C@@H]1C(=O)N[C@H]1COC[C@@H]1C(=O)N[C@H]1CCC[C@@H]1C(=O)N[C@H]1CCC[C@@H]1C(=O)N[C@H]1CCC[C@@H]1C(=O)N[C@H]1CCC[C@@H]1C(=O)N[C@H]1CCC[C@@H]1C(=O)N[C@H]1CCC[C@@H]1C(=O)N[C@H]1CCC[C@@H]1C(=O)N[C@H]1CCC[C@@H]1C(=O)N[C@H]1CCC[C@@H]1C(N)=O | Active | Active |
| CC(=O)N[C@H]1CCC[C@@H]1C(=O)N[C@H]1CCC[C@@H]1C(=O)N[C@H]1CCC[C@@H]1C(=O)N[C@H]1CCC[C@@H]1C(=O)N[C@H]1CCC[C@@H]1C(=O)N[C@H]1CCC[C@@H]1C(=O)N[C@H]1CCC[C@@H]1C(=O)N[C@H]1CCC[C@@H]1C(=O)N[C@@H](CCCCN)CC(=O)N[C@H]1CCC[C@@H]1C(=O)N[C@H]1CCC[C@@H]1C(=O)N[C@H]1CCC[C@@H]1C(N)=O | inactive | inactive |
| CC(=O)N[C@H]1CCC[C@@H]1C(=O)N[C@H]1CCC[C@@H]1C(=O)N[C@H]1CCC[C@@H]1C(=O)N[C@H]1CCC[C@@H]1C(=O)N[C@H]1CCC[C@@H]1C(=O)N[C@@H](CCC(N)=O)CC(=O)N[C@H]1CCC[C@@H]1C(=O)N[C@H]1CCC[C@@H]1C(=O)N[C@H]1CCC[C@@H]1C(=O)N[C@H]1CCC[C@@H]1C(=O)N[C@H]1CCC[C@@H]1C(=O)N[C@H]1CCC[C@@H]1C(N)=O | inactive | inactive |
| CC(=O)N[C@H]1CCC[C@@H]1C(=O)N[C@H]1CCC[C@@H]1C(=O)N[C@H]1CCC[C@@H]1C(=O)N[C@H]1CCC[C@@H]1C(=O)N[C@H]1CCC[C@@H]1C(=O)N[C@H](CC(=O)N[C@H]1CCC[C@@H]1C(=O)N[C@H]1CCC[C@@H]1C(=O)N[C@H]1CCC[C@@H]1C(=O)N[C@H]1CCC[C@@H]1C(=O)N[C@H]1CCC[C@@H]1C(=O)N[C@H]1CCC[C@@H]1C(N)=O)CC(C)C | inactive | inactive |
